Laboratory results taken from US20240383874A1, “BENZENE RING DERIVATIVE, AND COMPOSITION AND PHARMACEUTICAL USE THEREOF” (Xizang Haisco Pharmaceutical Co., Ltd., priority 2020, published 2024).
pIC50: −log10 of the molar value. Like-named read-outs stand apart in the source and are kept apart here.

Experiments:
22RV1 cells = test: Experiment 1 on inhibiting 22RV1 cell proliferation (5 days, CellTiter-Glo); type: cell-based; details: 1% css-FBS phenol red-free medium, incubated with compound 5 days, read-out: IC50 values on proliferation inhibition of 22RV1 cells
Protocol: Prostate cancer cells 22RV1 were purchased from ATCC, the cell medium was RPMI 1640+10% FBS, and the cells were cultured in an incubator at 37° C. under 5% CO2. On day 1, the cells in an exponential phase were collected. With a 1% css-FBS phenol red-free medium, the cell suspension was adjusted to a corresponding concentration, plated at 2000 cells/well and incubated overnight. On day 2, compounds at different concentrations were added, and the plate was placed in the incubator and incubated for further 5 days. After the incubation was completed, according to operation instructions for a CellTiter-Glo kit (Promega, G7573), 50 μL of CTG solution, which was already pre-melted and equilibrated to room temperature, was added to each well, and the mixtures were uniformly mixed for 2 min using a microplate shaker. The plate was placed at room temperature for 10 min, and then fluorescence signal values were measured using a microplate reader (PHERAstar FSX). The results were processed according to formula (1), the survival rate of the compound at different concentrations was calculated, and the IC50 value of the compound with a survival rate of 50% was calculated using origin9.2 software with DoseResp function, wherein RLUcompound was the readout of the treated group, and RLUcontrol was the average value of the DMSO vehicle control group.

[1] = Pharmacokinetic test in beagle dogs; type: in vivo; details: dog, plasma, oral; male beagle dogs, i.v. 1 mg/kg and i.g. 10 mg/kg, single dose
Protocol: Test objective: a single dose of test compounds was administered to beagle dogs intravenously and intragastrically, and the concentrations of the test compounds in plasma of the beagle dogs were measured to evaluate pharmacokinetic characteristics of the test compounds in the beagle dogs.
Test animals: male beagle dogs, about 8-11 kg, 6 beagle dogs/compound, purchased from Beijing Marshall Biotechnology Co., Ltd.
Test method: on the day of the test, 6 beagle dogs were randomly grouped according to their body weights. The animals were fasted with water available for 12 to 14 hours one day before the administration of a test compound, and were fed 4 hours after the administration. The administration was performed according to Table 10.
Sampling: before and after the administration, 1 ml of blood was taken from the limb veins, and placed in an EDTAK2 centrifuge tube. Centrifugation was carried out at 5000 rpm at 4° C. for 10 min, and the plasma was collected.
Time points for blood collection: 0 min, 5 min, 15 min, 30 min, 1 h, 2 h, 4 h, 6 h, 8 h, 10 h, 12 h and 24 h. Before analysis and detection, all samples were stored at −80° C. The samples were analyzed quantitatively by LC-MS/MS.

[2] = biological target: T1, AR splice variant 7 (AR-V7) (Homo sapiens, UniProt P10275); test: Degradation experiment on AR splice variant 7 (AR-V7) in 22RV1 cells; type: cell-based; details: 24 h, degradation rate 50% relative to vehicle control
T1 construct: host or cells: 22RV1 prostate cancer cells
T1 sequence (P10275 1-644 isoform P10275-3): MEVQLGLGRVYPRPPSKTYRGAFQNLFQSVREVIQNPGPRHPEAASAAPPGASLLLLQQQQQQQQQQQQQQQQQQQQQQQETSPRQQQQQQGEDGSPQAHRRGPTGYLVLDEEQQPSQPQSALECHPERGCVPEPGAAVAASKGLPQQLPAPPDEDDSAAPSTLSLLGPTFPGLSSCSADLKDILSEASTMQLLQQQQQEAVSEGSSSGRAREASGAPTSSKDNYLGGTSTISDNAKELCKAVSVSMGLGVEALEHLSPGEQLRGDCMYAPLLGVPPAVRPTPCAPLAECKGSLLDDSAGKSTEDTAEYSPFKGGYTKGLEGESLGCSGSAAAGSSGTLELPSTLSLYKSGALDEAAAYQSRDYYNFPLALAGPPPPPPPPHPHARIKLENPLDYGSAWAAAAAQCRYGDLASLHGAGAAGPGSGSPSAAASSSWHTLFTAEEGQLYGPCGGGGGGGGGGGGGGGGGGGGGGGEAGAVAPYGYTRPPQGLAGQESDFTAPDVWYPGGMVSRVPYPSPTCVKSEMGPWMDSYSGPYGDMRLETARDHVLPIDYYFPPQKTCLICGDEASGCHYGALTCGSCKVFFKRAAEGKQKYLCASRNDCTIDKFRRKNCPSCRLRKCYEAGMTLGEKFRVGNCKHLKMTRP
Protocol: Prostate cancer cells 22RV1 were purchased from ATCC, the cell medium was 1640+10% FBS, and the cells were cultured in an incubator at 37° C. under 5% CO2. On day 1, the cells in an exponential phase were collected. With a 1% css-FBS phenol red-free medium, the cell suspension was adjusted to a corresponding concentration and plated into a 6-well plate at 1 mL/well and 300000 cells/well. The next day, a 1% css-FBS phenol-free medium containing the compound to be tested was added, a 1% css-FBS phenol-free medium containing 0.2% DMSO was added to one well as DMSO vehicle control, and the 6-well plate was cultured in an incubator at 37° C. under 5% CO2. After 24 h, the cells were digested with pancreatin and collected into a 1.5 mL centrifuge tube. […] The supernatant protein samples were collected, and protein quantification was performed by a BCA method. AR-V7 was detected using fully automatic protein expression quantitative analysis, which involved diluting the protein to be tested to 2 mg/mL. […] The prepared reagents were successively added to an assay plate according to instructions of the kit and detected on an instrument. Western blot band processing was performed using “Compass for SW”, a fully automatic protein expression quantitative analysis software, in which western blot bands were automatically simulated based on signal values. […]

| pIC50 (22RV1 cells) | pIC50 (22RV1 cells; Homo sapiens, 22Rv1, 120 h) | bioavailability [1] [%] | DC50 [2] [nM] | SMILES |
| --- | --- | --- | --- | --- |
| 6.08 | 5.82 to 6.30 |  |  | O=C1CCC(N2C(=O)c3ccc(N4CCN(CC5CCN(S(=O)(=O)Nc6ccc(Cl)cc6C(=O)Nc6ccc(C(F)(F)F)cc6Cl)CC5)CC4)cc3C2=O)C(=O)N1 (stereo not shown) [Compound 1, 5-chloro-N-(2-chloro-4-(trifluoromethyl)phenyl)-2-{[(4-[(4-(2-(2,6-dioxopiperidin-3-yl)-1,3-dioxo-2,3-dihydro-1H-isoindol-5-yl)piperazin-1-yl)methyl]piperidin-1-yl)sulfonyl]amino}benzamide] |
| 6.23 | 5.82 to 6.30 |  |  | O=C1CCC(N2C(=O)c3ccc(N4CC(N5CCN(S(=O)(=O)Nc6ccc(Cl)cc6-c6nc7cc(C(F)(F)F)cc(Cl)c7[nH]6)CC5)C4)cc3C2=O)C(=O)N1 (stereo not shown) [Compound 2, N-(4-chloro-2-(7-chloro-5-(trifluoromethyl)-1H-1,3-benzodiazol-2-yl)phenyl)-4-(1-(2-(2,6-dioxopiperidin-3-yl)-1,3-dioxo-2,3-dihydro-1H-isoindol-5-yl)azetidin-3-yl)piperazine-1-sulfonamide] |
| 5.91 |  |  |  | O=C1CCC(N2C(=O)c3ccc(N4CCC(CN5CCN(S(=O)(=O)Nc6ccc(Cl)cc6C(=O)Nc6ccc(C(F)(F)F)cc6Cl)CC5)CC4)cc3C2=O)C(=O)N1 (stereo not shown) [Compound 3, 5-chloro-N-(2-chloro-4-(trifluoromethyl)phenyl)-2-((4-((1-(2-(2,6-dioxopiperidin-3-yl)-1,3-dioxoisoindolin-5-yl)piperidin-4-yl)methyl)piperazine)-1-sulfonamido)benzamide] |
|  |  | > 15 |  | COc1c(Cl)cc(C(C)(C)c2ccc(OCc3ccnc(N4CCC(CN5CCC(C6CCN(c7ccc8c(c7)n(C)c(=O)n8C7CCC(=O)NC7=O)CC6)CC5)CC4)n3)cc2)cc1C#N (stereo not shown) [Compound 97, 3-chloro-5-(2-(4-((2-(4-((1′-(1-(2,6-dioxopiperidin-3-yl)-3-methyl-2-oxo-2,3-dihydro-1H-benzo[d]imidazol-5-yl)-[4,4′-bipiperidin]-1-yl)methyl)piperidin-1-yl)pyrimidin-4-yl)methoxy)phenyl)propan-2-yl)-2-methoxybenzonitrile] |
|  |  |  | 3710 | COc1c(Cl)cc(C(C)(C)c2ccc(OCc3ccnc(N4CCC(CN5CCC(C6CCN(c7ccc(C8CCC(=O)NC8=O)cc7)CC6)CC5)CC4)n3)cc2)cc1C#N (stereo not shown) [Compound 119, 3-chloro-5-(2-(4-((2-(4-((1′-(4-(2,6-dioxopiperidin-3-yl)phenyl)-[4,4′-bipiperidin]-1-yl)methyl)piperidin-1-yl)pyrimidin-4-yl)methoxy)phenyl)propan-2-yl)-2-methoxybenzonitrile] |
